Source: patent US9499535B2, “Kinase inhibitors” (ORIGENIS GMBH, priority 2011, dated 2016)

Target: T1, SYK kinase (Homo sapiens, UniProt P43405)
T1 construct: purchased Invitrogen, Carlsbad
Assay: SYK assay (OMNIA Kinase Assay, Invitrogen)
Assay type: biochemical
Conditions: apparent Ki calculated from the IC50 using the Cheng-Prusoff equation; 1 mM ATP, 10 μM Peptide Substrate; read-out: SYK Activities: Ki
Experimental: In the assay OMNIA® KINASE ASSAY by Invitrogen Corporation (Carlsbad) the effect of invention of a compound on the phosphorylation is determined by measurement of fluorescence intensity of a chelation-enhanced fluorophore called SOX. Upon phosphorylation of the peptide by the kinase of interest, Mg2+ is chelated to form a bridge between the SOX moiety and the phosphate group that is transferred to the specific tyrosine on the peptide. The fluorescence intensity is directly proportional to the amount of peptide phosphorylation.
To the wells of an 384 well small volume plate (Greiner, Frickenhausen) are added (i) the compound under test in 5% DMSO/distilled water (2 μl), (ii) 16 μl of the master mix containing ATP, DTT, Kinase Reaction Buffer, Omina Peptide Substrate Tyr 7 resulting in a final concentration of 1 mM ATP, 0.2 mM DTT and 10 μM Peptide Substrate.
The Master Mix and the assay plate was incubated to reaction temperature before the measurement (30° C.). The reaction was started with addition of (iii) 2 μl 4 μg/ml SYK kinase (Invitrogen, Carlsbad). During measurement fluorescence intensitiy readings were collected using a TECAN M1000 at a wavelength of λex 360/λem 485 nm every 30 s for 30 minutes. The reaction velocity was plotted versus the inhibitor concentration to determine the IC50 using XLFit 5.0 (IDBS, Guildford) to fit to a sigmoidal dose response curve, and the apparent Ki values were calculated from the IC50 using the Cheng-Prusoff equation (Cheng, Y.; Prusoff, W. H. Biochem. Pharmacol. 22, 3099-3108, 1973).

| Ki | Compound |
| --- | --- |
| < 10 nM | COc1ccc2nc(Nc3ccc([N+](=O)[O-])cc3)c3n[nH]cc3c2c1 [Example #318, 8-methoxy-N-(4-nitrophenyl)-2H-pyrazolo[3,4-c]quinolin-4-amine] |
| 100 to 1000 nM | COc1ccc(Nc2nc3ccccc3c3c[nH]nc23)cn1 [Example #25, (6-Methoxy-pyridin-3-yl)-(2H-pyrazolo[3,4-c]quinolin-4-yl)-amine] |
| 100 to 1000 nM | COc1ccc2nc(Nc3cccc(-n4nccn4)c3)c3n[nH]cc3c2c1 [Example #347, N-(3-(2H-1,2,3-triazol-2-yl)phenyl)-8-methoxy-2H-pyrazolo[3,4-c]quinolin-4-amine] |
| 100 to 1000 nM | COc1ccc2nc(Nc3cc(F)cc(F)c3)c3n[nH]cc3c2c1 [Example #315, N-(3,5-difluorophenyl)-8-methoxy-2H-pyrazolo[3,4-c]quinolin-4-amine] |
| < 10 nM | COc1ccc2nc(Nc3ccc(N4CCOCC4)c([N+](=O)[O-])c3)c3n[nH]cc3c2c1 [Example #359, 8-methoxy-N-(4-morpholino-3-nitrophenyl)-2H-pyrazolo[3,4-c]quinolin-4-amine] |
| 10 to 100 nM | COc1ccc(Nc2nc3cccnc3c3c[nH]nc23)cc1OC [Example #123, (3,4-Dimethoxy-phenyl)-(2H-2,3,5,9-tetraaza-cyclopenta[a]naphthalen-4-yl)-amine] |
| < 10 nM | COc1ccc(Nc2nc3cc(C#N)ccc3c3c(C)[nH]nc23)cc1OC [Example #226, 4-(3,4-Dimethoxy-phenylamino)-1-methyl-2H-pyrazolo[3,4-c]quinoline-7-carbonitrile] |
| 10 to 100 nM | c1ccc2c(c1)nc(Nc1ccc3cn[nH]c3c1)c1n[nH]cc12 [Example #6, (1H-Indazol-6-yl)-(2H-pyrazolo[3,4-c]quinolin-4-yl)-amine] |
| 100 to 1000 nM | COc1ccc2nc(Nc3nc4c(s3)CCCC4)c3n[nH]cc3c2c1 [Example #158, (8-Methoxy-2H-pyrazolo[3,4-c]quinolin-4-yl)-(4,5,6,7-tetrahydro-benzothiazol-2-yl)-amine] |
| 10 to 100 nM | COc1ccc2nc(Nc3cc(C)c4[nH]ncc4c3)c3n[nH]cc3c2c1 [Example #10, (8-Methoxy-2H-pyrazolo[3,4-c]quinolin-4-yl)-(7-methyl-1H-indazol-5-yl)-amine] |
| 100 to 1000 nM | COc1cc(OC)c2nc(Nc3ccc(NC(=O)Nc4cccc(C)c4)cc3)c3n[nH]cc3c2c1 [Example #297, 1-(4-((6,8-dimethoxy-2H-pyrazolo[3,4-c]quinolin-4-yl)amino)phenyl)-3-(m-tolyl)urea] |
| 100 to 1000 nM | COC(=O)c1scc2c1nc(Nc1ccc(OC)c(OC)c1)c1n[nH]cc12 [Example #275, 4-((3,4-dimethoxyphenyl)amino)-2H-pyrazolo[4,3-d]thieno[3,4-b]pyridine-6-carboxylic acid methyl ester] |
| 100 to 1000 nM | FC(F)(F)c1[nH]nc2c(Nc3ccc4cn[nH]c4c3)nc3ccccc3c12 [Example #212, (1H-Indazol-6-yl)-(1-trifluoromethyl-2H-pyrazolo[3,4-c]quinolin-4-yl)-amine] |
| 100 to 1000 nM | COc1ccc2nc(Nc3cc(C)cc(C)n3)c3n[nH]cc3c2c1 [Example #156, (4,6-Dimethyl-pyridin-2-yl)-(8-methoxy-2H-pyrazolo[3,4-c]quinolin-4-yl)-amine] |
| 100 to 1000 nM | c1ccc2c(c1)nc(Nc1ccc3[nH]ccc3c1)c1n[nH]cc12 [Example #82, (1H-Indol-5-yl)-(2H-pyrazolo[3,4-c]quinolin-4-yl)-amine] |
| 100 to 1000 nM | COc1ccc2nc(Nc3ccc(N4CCOCC4)cc3C)c3n[nH]cc3c2c1 [Example #191, (8-Methoxy-2H-pyrazolo[3,4-c]quinolin-4-yl)-(2-methyl-4-morpholin-4-yl-phenyl)-amine] |
| < 10 nM | COc1ccc2nc(Nc3ccc(NC(=O)c4ccc(F)cc4)cc3)c3n[nH]cc3c2c1 [Example #358, 4-fluoro-N-(4-((8-methoxy-2H-pyrazolo[3,4-c]quinolin-4-yl)amino)phenyl)benzamide] |
